This is an account of results in patent US11613546B2, “Substituted pyridotriazine compounds and uses thereof” (Gilead Sciences, Inc., priority 2021, dated 2023).

Like-named read-outs stand apart in the source and are kept apart here.

Format in all cases: cell-based
One series relates to HIV-1 (IIIB). The experiment in a line: Antiviral assay in MT-4 cells. Conditions: Human immunodeficiency virus 1, IIIB, MT4, 120 h. The procedure:
Antiviral Assay in MT-4 Cells
(§1) Compounds were tested in a high-throughput 384-well assay format for their ability to inhibit the replication of HIV-1 (IIIB) in MT-4 cells. Compounds were serially diluted (1:3) in DMSO on 384-well polypropylene plates and further diluted 200-fold into complete RPMI media (10% FBS, 1% P/S) using the Biotek Micro Flow and Labcyte ECHO acoustic dispenser. Each plate contained up to 8 test compounds, with negative (No Drug Control) and 5 μM AZT positive controls. MT-4 cells were pre-infected with 10 μL of either RPMI (mock-infected) or a fresh 1:250 dilution of HIV-1 IIIB concentrated virus stock. Infected and uninfected MT-4 cells were further diluted in complete RPMI media and added to each plate using a Micro Flow dispenser. After 5 days incubation in a humidified and temperature controlled incubator (37° C.), Cell Titer Glo (Promega) was added to the assay plates and chemiluminescence read using an Envision plate-reader. EC50 values were defined as the compound concentration that causes a 50% decrease in luminescence signal, and were calculated using a sigmoidal dose-response model to generate curve fits.

A short description of series [1]: Cytotoxicity assay in MT-4 cells. The settings on record: human. The procedure: as §1, with “fits. Cytotoxicity Assay in MT-4 Cells Assays were performed as above except uninfected MT-4 cells were added to each well containing test compound. In addition, 10 μM puromycin was added to the last column of each assay plate to assess a base level of cytotoxicity.” for “fits.”

For a further series, the system named is pLai RLuc reporter virus. Put plainly: HIV MT-4 serum shift antiviral reporter assay. Conditions: Human immunodeficiency virus 1, 72 h. The procedure:
To quantify the amount of protein binding to human serum, compounds were serially diluted (1:3) in DMSO and acoustically transferred onto 384-well assay plates via a Labcyte ECHO robot. Each plate contained up to 8 test compounds, including negative and positive controls, (DMSO, 5 μM AZT respectively). Assay plates were prepared in duplicate, and tested in either CCM (cell culture media) or HS/CCM (human serum/cell culture media). MT-4 cells were first pre-infected with pLai RLuc reporter virus for 2 h at 37° C., then further diluted in either CCM (RPMI media, 10% FBS, 1% P/S) or HS/CCM (RPMI media, 10% FBS, 50% HS, 1% P/S), and subsequently added to each plate using a Biotek Micro Flow dispenser. After a 72-h incubation in a humidified and temperature controlled incubator (37° C.), Renilla Glo (Promega) was added to all assay plates and chemiluminescence read using an Envision plate-reader. EC50 values were defined as the compound concentration that causes a 50% decrease in luminescence signal, and were calculated using a sigmoidal dose-response model to generate curve fits. To determine the amount of protein binding, EC50 fold shifts (or EC50 shifts) were calculated by dividing EC50 (HS/CCM)/EC50 (CCM).
A general note: In a reporter assay the amount or activity of a reporter protein is the signal.

The mark [2] stands for this setting: HIV-1 IIIB infected MT-4 cells, 5 days, Cell Titer Glo, read-out: MT4 EC50.
The mark [3] stands for this setting: read-out: RLUC 50% HS (nM), HS/CCM: 50% human serum, 72 h, Renilla Glo.
Where [4] appears, read: read-out: RLUC CCM (nM), cell culture media (RPMI, 10% FBS), 72 h, Renilla Glo.
The mark [5] stands for this setting: uninfected MT-4 cells, 5 days, Cell Titer Glo, read-out: CC50.

In general, CC50 refers to the concentration giving 50% cytotoxicity. As for `C[C@H]1CCC2(CCC2)N2CN1C(=O)c1c(O)c(=O)c(C(=O)NCc3c(F)cc(F)cc3F)cn12` [Example C105, (1′S,5′S)-8′-hydroxy-5′-methyl-7′,9′-dioxo-N-(2,4,6-trifluorobenzyl)-4′,5′,7′,9′-tetrahydro-3′H-spiro[cyclobutane-1,2′-[1,6]methanopyrido[1,2-b][1,2,5]triazonine]-10′-carboxamide], the EC50 in the series with HIV-1 (IIIB) (setting [2]) amounted to 3 nM; with pLai RLuc reporter virus (setting [3]), 998 nM; in the series on pLai RLuc reporter virus (setting [4]) it was 1.38 nM. This molecule registered a CC50 at 5 days in series [1] (CC50 (nM)) of 13600 nM.

On to `CC(C)[C@@H]1CC[C@H](C)N2CN1n1cc(C(=O)NCc3c(F)cc(F)cc3F)c(=O)c(O)c1C2=O` [Example C75, (1S,2S,5S)-8-hydroxy-2-isopropyl-5-methyl-7,9-dioxo-N-(2,4,6-trifluorobenzyl)-2,3,4,5,7,9-hexahydro-1,6-methanopyrido[1,2-b][1,2,5]triazonine-10-carboxamide], for which the EC50 in the series on HIV-1 (IIIB) (setting [2]) worked out at 2 nM; in the series with pLai RLuc reporter virus (setting [3]), 277 nM; with pLai RLuc reporter virus (setting [4]) it was 1.02 nM. The half-maximal cytotoxic concentration (CC50) at 5 days in series [1] (setting [5]) amounted to 10900 nM.

With `C[C@@H]1C=CC(C)(C)N2CN1n1cc(C(=O)NCc3ccc(F)cc3F)c(=O)c(O)c1C2=O` [Example C90, (1S,2R)—N-(2,4-difluorobenzyl)-8-hydroxy-2,5,5-trimethyl-7,9-dioxo-2,5,7,9-tetrahydro-1,6-methanopyrido[1,2-b][1,2,5]triazonine-10-carboxamide], the EC50 in the series on HIV-1 (IIIB) (setting [2]) amounted to 2 nM; with pLai RLuc reporter virus (setting [3]) it was 91.9 nM; in the series with pLai RLuc reporter virus (setting [4]) it was 0.35 nM. Besides, in series [1] (setting [5]), the half-maximal cytotoxic concentration (CC50) at 5 days is 47100 nM.

As to `C[C@@H]1C=C[C@@H](C)N2CN1C(=O)c1c(O)c(=O)c(C(=O)NCc3c(F)cc(F)cc3F)cn12` [Example C64, (1S,2R,5R)-8-hydroxy-2,5-dimethyl-7,9-dioxo-N-(2,4,6-trifluorobenzyl)-2,5,7,9-tetrahydro-1,6-methanopyrido[1,2-b][1,2,5]triazonine-10-carboxamide], the EC50 in the series with HIV-1 (IIIB) (setting [2]) was 0.8 nM; in the series with pLai RLuc reporter virus (setting [3]), 150 nM; in the series with pLai RLuc reporter virus (setting [4]), 0.27 nM. For the same molecule, the CC50 at 5 days in series [1] (setting [5]) was determined as 11400 nM.

Take `C[C@H]1CCC(C)(C)N2CN1C(=O)c1c(O)c(=O)c(C(=O)NCc3c(F)cc(F)cc3F)cn12` [Example C87, (1S,5S)-8-hydroxy-2,2,5-trimethyl-7,9-dioxo-N-(2,4,6-trifluorobenzyl)-2,3,4,5,7,9-hexahydro-1,6-methanopyrido[1,2-b][1,2,5]triazonine-10-carboxamide]: the EC50 with pLai RLuc reporter virus (setting [3]) amounted to 198 nM; in the series on pLai RLuc reporter virus (setting [4]), 0.68 nM.

For the molecule `C[C@@H]1CC[C@@H](C)N2CN1C(=O)c1c(O)c(=O)c(C(=O)NCc3c(F)cc(F)cc3F)cn12` [Example C65, (1S,2R,5R)-8-hydroxy-2,5-dimethyl-7,9-dioxo-N-(2,4,6-trifluorobenzyl)-2,3,4,5,7,9-hexahydro-1,6-methanopyrido[1,2-b][1,2,5]triazonine-10-carboxamide], the EC50 was 1.8 nM in the series with HIV-1 (IIIB) (setting [2]), 63.8 nM in the series with pLai RLuc reporter virus (setting [3]) and 0.44 nM in the series on pLai RLuc reporter virus (setting [4]). Also, the CC50 at 5 days in series [1] (setting [5]) came out at 15400 nM.

Consider `C[C@@H]1C=C[C@H](CF)N2CN1n1cc(C(=O)NCc3c(F)cc(F)cc3F)c(=O)c(O)c1C2=O` [Example C50, (1S,2R,5R)-5-(fluoromethyl)-8-hydroxy-2-methyl-7,9-dioxo-N-(2,4,6-trifluorobenzyl)-2,5,7,9-tetrahydro-1,6-methanopyrido[1,2-b][1,2,5]triazonine-10-carboxamide], for which the figures for the EC50 in the series with HIV-1 (IIIB) (setting [2]), in the series on pLai RLuc reporter virus (setting [3]) and with pLai RLuc reporter virus (setting [4]) were 0.85 nM, 850 nM and 0.37 nM, respectively. Also, the 50% cytotoxic concentration (CC50) at 5 days in series [1] (setting [5]) was 13300 nM.

Consider `C[C@H]1CC[C@@H](CF)N2CN1n1cc(C(=O)NCc3ccc(F)cc3F)c(=O)c(O)c1C2=O` [Example C96, (1R,2S,5S)—N-(2,4-difluorobenzyl)-5-(fluoromethyl)-8-hydroxy-2-methyl-7,9-dioxo-2,3,4,5,7,9-hexahydro-1,6-methanopyrido[1,2-b][1,2,5]triazonine-10-carboxamide], for which the EC50 is 11.2 nM with HIV-1 (IIIB) (setting [2]), 958 nM in the series on pLai RLuc reporter virus (setting [3]) and 8.27 nM in the series with pLai RLuc reporter virus (setting [4]). For the same molecule, the cytotoxic concentration (CC50) at 5 days in series [1] (setting [5]) was determined as 5370 nM.

Regarding `C[C@@H]1C[C@@H](C(F)F)[C@H](C)N2CN1n1cc(C(=O)NCc3c(F)cc(F)cc3F)c(=O)c(O)c1C2=O` [Example C56, (1S,2R,4R,5S)-4-(difluoromethyl)-8-hydroxy-2,5-dimethyl-7,9-dioxo-N-(2,4,6-trifluorobenzyl)-2,3,4,5,7,9-hexahydro-1,6-methanopyrido[1,2-b][1,2,5]triazonine-10-carboxamide], the EC50 with HIV-1 (IIIB) (read-out: MT4 EC50 (nM)) worked out at 1.1 nM; in the series with pLai RLuc reporter virus (setting [3]), 24.9 nM; in the series on pLai RLuc reporter virus (setting [4]), 0.52 nM. Further, in series [1] (setting [5]), the 50% cytotoxic concentration (CC50) at 5 days was found to be 10100 nM.

In the case of `COC[C@@H]1C=C[C@H](C)N2CN1n1cc(C(=O)NCc3ccc(F)cc3F)c(=O)c(O)c1C2=O` [Example C82, (1S,2S,5S)—N-(2,4-difluorobenzyl)-8-hydroxy-2-(methoxymethyl)-5-methyl-7,9-dioxo-2,5,7,9-tetrahydro-1,6-methanopyrido[1,2-b][1,2,5]triazonine-10-carboxamide], the EC50 in the series on HIV-1 (IIIB) (setting [2]) amounted to 1.3 nM; with pLai RLuc reporter virus (setting [3]), 75 nM; in the series on pLai RLuc reporter virus (setting [4]), 0.73 nM. Further, the CC50 at 5 days in series [1] (setting [5]) turned out to be 16800 nM.

As to `C[C@H]1CC[C@@H](CF)N2CN1C(=O)c1c(O)c(=O)c(C(=O)NCc3ccc(F)cc3F)cn12` [Example C45, (1S,2S,5S)—N-(2,4-difluorobenzyl)-2-(fluoromethyl)-8-hydroxy-5-methyl-7,9-dioxo-2,3,4,5,7,9-hexahydro-1,6-methanopyrido[1,2-b][1,2,5]triazonine-10-carboxamide], the EC50 in the series on HIV-1 (IIIB) (setting [2]) came to 1.8 nM. The CC50 at 5 days in series [1] (setting [5]) was 11000 nM.

As to `C[C@H]1C=CC2(COC(C)(C)C2)N2CN1C(=O)c1c(O)c(=O)c(C(=O)NCc3c(F)cc(F)cc3F)cn12` (stereo partly drawn) [Example C9, (1′S,5′S)-8′-hydroxy-5,5,5′-trimethyl-7′,9′-dioxo-N-(2,4,6-trifluorobenzyl)-4,5,7′,9′-tetrahydro-2H,5′H-spiro[furan-3,2′-[1,6]methanopyrido[1,2-b][1,2,5]triazonine]-10′-carboxamide], in series [1] (CC50 (nM)), the half-maximal cytotoxic concentration (CC50) at 5 days was determined as 25300 nM.

Take `C[C@@H]1CCC[C@@H](C)N2CN1C(=O)c1c(O)c(=O)c(C(=O)NCc3c(F)cc(F)cc3F)cn12` [Example C22, (1S,2R,6R)-9-hydroxy-2,6-dimethyl-8,10-dioxo-N-(2,4,6-trifluorobenzyl)-3,4,5,6,8,10-hexahydro-2H-1,7-methanopyrido[1,2-b][1,2,5]triazecine-11-carboxamide]: the EC50 in the series with HIV-1 (IIIB) (setting [2]) came to 2.2 nM. Moreover, the 50% cytotoxic concentration (CC50) at 5 days in series [1] (setting [5]) is 16300 nM.

Take `CCC1N2C(=O)c3c(O)c(=O)c(C(=O)NCc4c(F)cc(F)cc4F)cn3N1[C@H](C)C=C[C@@H]2C` (stereo partly drawn) [Example C101, (1S,2R,5S)-13-ethyl-8-hydroxy-2,5-dimethyl-7,9-dioxo-N-(2,4,6-trifluorobenzyl)-2,5,7,9-tetrahydro-1,6-methanopyrido[1,2-b][1,2,5]triazonine-10-carboxamide]: in the series with HIV-1 (IIIB) (setting [2]), the EC50 stood at 19.7 nM. Also, the half-maximal cytotoxic concentration (CC50) at 5 days in series [1] (setting [5]) is 33500 nM.

`CC1N2C(=O)c3c(O)c(=O)c(C(=O)NCc4c(F)cc(F)cc4F)cn3N1[C@H](C)C=C[C@@H]2C` (stereo partly drawn) [Example C100, (1S,2R,5S)-8-hydroxy-2,5,13-trimethyl-7,9-dioxo-N-(2,4,6-trifluorobenzyl)-2,5,7,9-tetrahydro-1,6-methanopyrido[1,2-b][1,2,5]triazonine-10-carboxamide]: the EC50 with HIV-1 (IIIB) (setting [2]) came to 0.8 nM. In series [1] (setting [5]), the half-maximal cytotoxic concentration (CC50) at 5 days turned out to be 16200 nM.
